Results from patent US8343892B2 (priority 2003, dated 2013).

Test system: Phytophthora infestans
Assay type: in vivo
Details: tomato (Marmande), 48 h preventive, assessed 5 days after contamination; lower line = chlorothalonil dose (in mixture or alone)

SMILES: N#Cc1c(Cl)c(Cl)c(Cl)c(C#N)c1Cl [Chlorothalonil, tetrachloroisophthalonitrile]
- ED70, Practical doses for 70% efficacy: dose of chlorothalonil: 16.1 µg/mL
- ED90, Practical doses for 90% efficacy: dose of chlorothalonil: 36.7 µg/mL
